# Test results from patent publication US20070060558A1 (PALUMED S.A., priority 2004, published 2007).
# Like-named read-outs stand apart in the source and are kept apart here. Starred links: 1 amine or outer side, 2 acyl side, 3 side chain; linkers in the order of their positions; H or OH if unused. Positions of bridges follow the written chain, without caps; N, C: chain ends. Non-standard residues stand in square brackets, D forms with d. Residues, ends and D or L forms follow the SMILES beside them. ξ: configuration not given here. *: point of attachment. X1 = O=C1C[C@@H](C(=O)[*:2])N([*:1])C[C@H]1CSCCNc1ccnc2cc(Cl)ccc12; NMePhe(4-NMe2) = CN[C@@H](Cc1ccc(N(C)C)cc1)C(=O)O; Pip(4-oxo) = O=C1CCN[C@H](C(=O)O)C1; Picolinoyl(3-OH) = O=C(c1ncccc1O)*; Phg = N[C@H](C(=O)O)c1ccccc1; ξPhg = NC(C(=O)O)c1ccccc1; dAbu = CC[C@@H](N)C(=O)O
# Legend:
# [1] = test system: Staphylococcus aureus MSSA CIP 4.83; assay: Antibacterial activity (MIC/MBC); assay type: cell-based; settings: S. aureus MSSA CIP 4.83; for MBC: read-out: MBC
# [2] = test system: S. pneumoniae PSSP CIP 6.92; assay: Antibacterial activity (MIC/MBC); assay type: cell-based; settings: Streptococcus pneumoniae, CIP6
# [3] = test system: S. pneumoniae PRSP CIP 104471; assay: Antibacterial activity (MIC/MBC); assay type: cell-based, Streptococcus pneumoniae; settings: Streptococcus pneumoniae; for MIC: read-out: MIC
# [4] = test system: S. pneumoniae PRSP clinical isolate; assay: Antibacterial activity (MIC/MBC); assay type: cell-based, Streptococcus pneumoniae; settings: Streptococcus pneumoniae; for MIC: PRSP, read-out: MIC
# S. pyogenes CIP 56.41T = assay: Antibacterial activity (MIC/MBC); assay type: cell-based, Streptococcus pyogenes; settings: S. pyogenes CIP 56.41T
# [5] = test system: E. faecalis VRE CIP 104676; assay: Antibacterial activity (MIC/MBC); assay type: cell-based, Enterococcus faecalis; settings: Enterococcus faecalis, E. faecalis VRE CIP 104676; for MIC: read-out: MIC
# H. influenzae CIP 102514 = assay: Antibacterial activity (MIC/MBC); assay type: cell-based, Haemophilus influenzae; settings: Haemophilus influenzae, CIP102514
# M. catarrhalis CIP73.21T = assay: Antibacterial activity (MIC/MBC); assay type: cell-based; settings: Moraxella catarrhalis
# [6] = test system: Staphylococcus aureus MSSA 53.154; assay: Murine experimental septicaemia, in vivo efficacy; design: species or system mice; settings: sc, mice, subcutaneously at 1 and 6 h post infection, survival on day 9, hybrid molecules formulated in water as their sodium salt, read-out: ED50
# Procedure: Experimental septicaemia was induced in mice as follows. Briefly, male Swiss OF1 mice (IFFA CREDO-Charles River) weighing 18 to 20 grams were infected intraperitoneally with 0.5 mL of a bacterial suspension containing 8.5×10^7 cfu of Staphylococcus aureus MSSA 53.154 (Institut Pasteur). The hybrid molecules were administered subcutaneously at 1 and 6 h post infection. Control and treatment groups at each dose were composed of seven mice. All the infected but untreated control mice died within 9 days. The 50% effective dose (ED50) values were calculated by a computerized program (GraphPad) from the survival rates on day 9 after infection.
# S. pneumoniae PRSP = assay: Antibacterial activity (MIC), Table VII; assay type: cell-based; settings: Streptococcus pneumoniae; S. pneumoniae PRSP (Table VII); read-out: MIC
# E. coli CIP 54127 = assay: Antibacterial activity (MIC); assay type: cell-based; settings: Escherichia coli, CIP54127; E. coli CIP 54127; read-out: MIC
# P. aeruginosa CIP 103467 = assay: Antibacterial activity (MIC); assay type: cell-based; settings: Pseudomonas aeruginosa, CIP103467; P. aeruginosa CIP 103467; read-out: MIC
# [7] = test system: B. thuringiensis CIP 104676; assay: Antibacterial activity (MIC); assay type: cell-based; settings: Bacillus thuringiensis, CIP104676; B. thuringiensis CIP 104676; read-out: MIC
# [8] = test system: S. pneumoniae PSSP CQI 201; assay: Antibacterial activity (MIC); assay type: cell-based, Streptococcus pneumoniae; settings: S. pneumoniae PSSP CQI 201
# C. difficile CIP 104282 = assay: Antibacterial activity (MIC); assay type: cell-based, Clostridium difficile; settings: Clostridioides difficile, CIP104282; C. difficile CIP 104282; read-out: MIC
# [9] = test system: S. aureus MRSA clinical isolate; assay: Antibacterial activity (MIC); assay type: cell-based, Staphylococcus aureus; settings: S. aureus MRSA clinical isolate
# [10] = Stability in solution at pH 7 (HPLC purity over time); assay type: physicochemical; settings: pH 7, 37° C.
# Procedure: (§1) The stability of the aminoquinoline-cephalosporin_hybrid molecules given as examples was determined in solution at 37° C., at physiological pH (pH 7, phosphate buffer/acetonitrile, 75/25 v/v) and at acidic pH (pH 1, 0.1 M HCl/ethanol, 70/30 v/v) by high pressure liquid chromatography coupled to a UV-visible detector (Beckman Coulter ODS C18 column, 5 μm, 4.6×250 mm; eluents: A: 0.1% TFA, B: CH3CN/H2O 90/10 0.1% TFA, gradient: from 10% to 100% of B in 30 minutes, and then 100% of B for 10 minutes, flow rate 1 mL/minutes, λ=254 nm, volume injected: 10 μL).
# [11] = Stability in solution at pH 1 (HPLC purity over time); assay type: physicochemical; settings: pH 1, 37° C.
# Procedure: as §1
# [12] = Staphylococcus aureus, read-out: MIC
# [13] = Streptococcus pyogenes, CIP56, read-out: MIC
# [14] = H. influenzae CIP 102514, read-out: MIC
# [15] = Streptococcus pneumoniae, read-out: MIC
compound,measurement,setting,value
"CC(=O)OCC1=C(C(=O)O)N2C(=O)[C@@H](NC(=O)CNc3cc(C)nc4ccccc34)[C@H]2SC1 [PA 1101, (6R,7R-3-Acetoxymethyl-7-[2-2-methylquinolin-4-ylamino)acetylamino]-8-oxo-5-thia-1-aza-bicyclo[4.2.0]oct-2-ene-2-carboxylic acid]",MBC,[1]; Staphylococcus aureus,25 µg/mL
same,MIC,[1]; [12],0.2 µg/mL
same,MBC,[2],0.006 µg/mL
same,MIC,[2],0.006 µg/mL
same,MBC,[3],0.78 µg/mL
same,MIC,[3],0.2 µg/mL
same,MBC,[4],0.39 µg/mL
same,MIC,[4],0.2 µg/mL
same,MBC,"S. pyogenes CIP 56.41T; Streptococcus pyogenes, CIP56",0.0015 µg/mL
same,MIC,S. pyogenes CIP 56.41T; [13],0.0015 µg/mL
same,MBC,[5],25 µg/mL
same,MIC,[5],25 µg/mL
same,MBC,H. influenzae CIP 102514,12.5 µg/mL
same,MIC,H. influenzae CIP 102514,1.56 µg/mL
same,MBC,M. catarrhalis CIP73.21T,0.78 µg/mL
same,MIC,M. catarrhalis CIP73.21T,0.78 µg/mL
same,ED50,[6],0.13 mg/kg
"CC(=O)OCC1=C(C(=O)O)N2C(=O)[C@@H](NC(=O)CNc3ccnc4cc(C(F)(F)F)ccc34)[C@H]2SC1 [PA 1100, (6R,7R)-3-Acetoxymethyl-7-[2-(7-trifluoromethylquinolin-4-ylamino)-acetylamino]-8-oxo-5-thia-1-aza-bicyclo[4.2.0]oct-2-ene-2-carboxylic acid]",MBC,[1]; Staphylococcus aureus,25 µg/mL
same,MIC,[1]; [12],0.2 µg/mL
same,MBC,[2],0.006 µg/mL
same,MIC,[2],0.006 µg/mL
same,MBC,[3],0.78 µg/mL
same,MIC,[3],0.2 µg/mL
same,MBC,[4],0.39 µg/mL
same,MIC,[4],0.39 µg/mL
same,MBC,"S. pyogenes CIP 56.41T; Streptococcus pyogenes, CIP56",0.003 µg/mL
same,MIC,S. pyogenes CIP 56.41T; [13],0.003 µg/mL
same,MBC,[5],25 µg/mL
same,MIC,[5],12.5 µg/mL
same,MBC,H. influenzae CIP 102514,25 µg/mL
same,MIC,H. influenzae CIP 102514,0.78 µg/mL
same,MBC,M. catarrhalis CIP73.21T,1.56 µg/mL
same,MIC,M. catarrhalis CIP73.21T,0.78 µg/mL
same,ED50,[6],0.16 mg/kg
"Cl.O=C(O)c1cn(C2CC2)c2cc(N3CCN(c4ccnc5cc(C(F)(F)F)ccc45)CC3)c(F)cc2c1=O [PA 1284, 1-Cyclopropopyl-6-fluoro-4-oxo-7-[4-(7-trifluoromethylquinolin-4-yl)-piperazin-1-yl]-1,4-dihydroquinoline-3-carboxylic acid hydrochloride salt]",MIC,[1]; [12],0.156 µg/mL
same,MIC,S. pneumoniae PRSP,0.039 µg/mL
same,MIC,[5],0.625 µg/mL
same,MIC,H. influenzae CIP 102514; [14],0.625 µg/mL
same,MIC,E. coli CIP 54127,1.25 µg/mL
same,MIC,P. aeruginosa CIP 103467,> 5 µg/mL
same,MIC,[7],0.625 µg/mL
"CC(=O)NC[C@H]1CN(c2ccc(N3CCOCC3)c(F)c2)C(=O)O1 [Linezolid, reference compound]",MIC,[8]; [15],1.25 µg/mL
same,MIC,C. difficile CIP 104282,0.16 µg/mL
"CC[C@H]1NC(=O)[C@@H](NC(=O)c2ncccc2O)[C@@H](C)OC(=O)C(c2ccccc2)NC(=O)[C@@H]2CC(=O)[C@H](CSCCNc3ccnc4cc(Cl)ccc34)CN2C(=O)[C@H](Cc2ccc(N(C)C)cc2)N(C)C(=O)[C@@H]2CCCN2C1=O (stereo partly shown) [PA 1182, 5δ-{1-[2-(7-Chloroquinolin-4-ylamino)-ethylamino]-methylsulfanyl}pristinamycin IA] ({Picolinoyl(3-OH)}-T[dAbu]P[NMePhe(4-NMe2)][X1][ξPhg]; ester 1-C)",MIC,[1]; [12],0.31 µg/mL
same,MIC,[9]; [12],1.25 µg/mL
same,MIC,[8]; [15],0.31 µg/mL
same,MIC,S. pyogenes CIP 56.41T; [13],0.32 µg/mL
"CC[C@H]1NC(=O)[C@@H](NC(=O)c2ncccc2O)[C@@H](C)OC(=O)[C@H](c2ccccc2)NC(=O)[C@@H]2CC(=O)CCN2C(=O)[C@H](Cc2ccc(N(C)C)cc2)N(C)C(=O)[C@@H]2CCCN2C1=O [Pristinamycin IA, reference compound] ({Picolinoyl(3-OH)}-T[dAbu]P[NMePhe(4-NMe2)][Pip(4-oxo)][Phg]; ester 1-C)",MIC,[1],2.5 µg/mL
same,MIC,[9],5 µg/mL
same,MIC,[8],0.31 µg/mL
same,MIC,S. pyogenes CIP 56.41T,1.25 µg/mL
"CC(=O)OCC1=C(C(=O)O)N2C(=O)[C@@H](NC(=O)CNc3ccnc4cc(Cl)ccc34)[C@H]2SC1.Cl [PA 1089, (6R,7R)-3-Acetoxymethyl-7-[2-(7-chloroquinolin-4-ylamino)-acetylamino]-8-oxo-5-thia-1-aza-bicyclo[4.2.0]oct-2-ene-2-carboxylic acid hydrochloride]",Purity of the hybrid molecules (as a percentage) as a function of time (hours),[10]; time 0 h,100%
same,Purity of the hybrid molecules (as a percentage) as a function of time (hours),[10]; time 1 h,100%
same,Purity of the hybrid molecules (as a percentage) as a function of time (hours),[10]; time 2 h,100%
same,Purity of the hybrid molecules (as a percentage) as a function of time (hours),[10]; time 4 h,100%
same,Purity of the hybrid molecules (as a percentage) as a function of time (hours),[10]; time 6 h,98%
same,Purity of the hybrid molecules (as a percentage) as a function of time (hours),[10]; time 8 h,97%
same,Purity of the hybrid molecules (as a percentage) as a function of time (hours),[10]; time 15 h,92%
same,Purity of the hybrid molecules (as a percentage) as a function of time (hours),[10]; time 24 h,83%
same,Purity of the hybrid molecules (as a percentage) as a function of time (hours),[11]; time 0 h,100%
same,Purity of the hybrid molecules (as a percentage) as a function of time (hours),[11]; time 1 h,96%
same,Purity of the hybrid molecules (as a percentage) as a function of time (hours),[11]; time 2 h,88%
same,Purity of the hybrid molecules (as a percentage) as a function of time (hours),[11]; time 4 h,81%
same,Purity of the hybrid molecules (as a percentage) as a function of time (hours),[11]; time 24 h,24%
same,MBC,[1]; Staphylococcus aureus,0.39 µg/mL
same,MIC,[1]; [12],0.2 µg/mL
same,MBC,[3],0.39 µg/mL
same,MIC,[3],0.39 µg/mL
same,MBC,[4],0.39 µg/mL
same,MIC,[4],0.39 µg/mL
same,MBC,[5],12.5 µg/mL
same,MIC,[5],6.25 µg/mL
same,MBC,"H. influenzae CIP 102514; H. influenzae CIP 102514, read-out: MBC",> 50 µg/mL
same,MIC,H. influenzae CIP 102514; [14],3.12 µg/mL
"O=C(CCNc1ccnc2cc(Cl)ccc12)NC[C@H]1CN(c2ccc(N3CCOCC3)c(F)c2)C(=O)O1 [PA 1185, (5S)-3-(7-Chloroquinolin-4-ylamino)-N-[3-(3-fluoro-4-morpholin-4-yl-phenyl)-2-oxo-oxazolidin-5-ylmethyl]-propionamide]",MIC,[8]; [15],1.25 µg/mL
same,MIC,C. difficile CIP 104282,0.16 µg/mL
